This is an account of results in patent publication US20060160883A1, “Regulation of immune system action in mammals through use of a multi-tiered model of immune system function” (priority 2005, published 2006).

The structures appear in SMILES notation.

The series has as its system osteosarcoma (bone cancer) and chondrosarcoma (cartilage cancer). The series is described as follows: Treatment of one dog (Maggie, 12 year old Border Collie) with bone and cartilage cancer after leg amputation. The class given is in vivo. From the text: The mammal involved is Maggie, a 12 year old, neutered female Border Collie. • 1) The IDO-producing diseases or conditions in this case are osteosarcoma (bone cancer) and chondrosarcoma (cartilage cancer). • 2) There are three parts to treatment in this model. There must be a choice or choices from Treatment Part A. There may be choice(s) from Treatment Part B and/or Part C. • A) The goal of Treatment Part A is to “turn off” IDO and/or its actions. The choice I used in this case was an antioxidant to compete with IDO for O2. • The antioxidant I used was ascorbic acid in the form of Ester-C, a licensed trademark of Zila Neutraceuticals, Inc. It is manufactured under U.S. Pat. Nos. 4,822,816 and 5,070,085. It was purchased at Sam's Club and the bottle contained 500 500 mg caplets with Rose Hips.
The doseage was bowel tolerance level which in this case was 3-4½ grams per day. • B) The goal of Treatment Part B is to build up the immune system. […] This is not, however, seen as a cure for either type of cancer she had. • Another choice was pain medication. • Yet another choice was antibiotics after the surgery to prevent infection while she healed. • My other treatment of choice was Vitamin D3. I purchased KAL brand D-400. (This stands for 400 IUs of Vitamin D3). I purchased them at several health food stores. There were 100 softgels per bottle and each softgel contained 400 IUs of D3 as well as 600 IUs of Vitamin A. They were manufactured by Nutraceutical Corp. for Makers of KAL, Inc. • Maggie's dosage most of the time was 6 softgels (2400 IUs) per day. For one week in November, she had no Vitamin D3, then after that, 10 (4000 IUs) per day for a short time, then 8 (3200 IUs) per day. • The total cost per month for Ester-C and D-400 was approximately $25.
Also, on July 12, she started taking Vitamin D3. (She started with 2 per day, and by July 14th, was taking 6 per day. She took 3 in the morning and 3 at night from then until October 30.) The hope was that the D3 could buy some time.
August 25, in addition to Vitamin D3, Maggie started taking Vitamin C (Ester-C caplets). That evening, she was given 3 caplets (one and one half grams).
The morning of August 26, she was given 4 caplets (2 grams). The goal was to find her bowel tolerance level.
Treatment resumed, this time with 9 softgels of Vitamin D3 per day and 9 caplets of Ester-C per day. That afternoon, […] developed a fever that lasted until afternoon of the next day.
A week later, she was taking 7 Ester-C and 10 D3 per day, but the D3 was dropped to 8 per day by November 21.

Regarding `O=C1O[C@H]([C@@H](O)CO)C(O)=C1O` [Vitamin C, ascorbic acid], the “overall effect of the treatment on the cancer (autopsy findings)” value (Ester-C plus Vitamin D3 after amputation, only microscopic cells and clusters in liver, bone tumor area being replaced) is recorded as “seemed to be working on the cancer”. Moreover, the “alkaline phosphatase level (blood test)” value runs as follows: (November 3, Ester-C at bowel tolerance since August 25 in addition to Vitamin D3 (D3 stopped October 30), before treatment 3175) 2230; (November 5, Vet Emergency Hospital (different lab), Ester-C plus Vitamin D3 treatment) 1669. The “lung and lower abdominal x-rays, sign of cancer” value (November 5, Ester-C plus Vitamin D3 treatment) is “no sign of cancer”. For the same compound, under “after death December 18, Ester-C plus Vitamin D3 treatment”, the “autopsy, cancer in lungs” value was “no cancer in her lungs”. In addition, the “alertness, behaviour” value (evening of August 26, one day after start of Ester-C (3 then 4 caplets) in addition to Vitamin D3) is “alert and awake”.
`C=C1CC[C@H](O)C/C1=C/C=C1\CCC[C@]2(C)[C@@H]([C@H](C)CCCC(C)C)CC[C@@H]12` [Vitamin D3]: for the setting “August 15, Vitamin D3 6 softgels (2400 IUs) per day since July 12 after amputation, level before treatment 3175, normal range 5-131”, the “alkaline phosphatase level (blood test)” value is 3113. For the same compound, the “lung X-rays” value (August 15, on Vitamin D3 after amputation) is reported as “no lung cancer tumors”. In addition, the “signs of Vitamin D3 overdose (blood test)” value (November 3, after 6 softgels (2400 IUs) per day July 14 to October 30) is on record as “no signs of Vitamin D3 overdose”. The “calcium deposits in organs on x-ray (a symptom of D3 overdose)” value (November 5) was “no calcium deposits in any organs”.
